Laboratory results published in the supplement of paper PMC11061612.

Experiments:
[1] = tested on: FU-OV-1 (Ovarian Carcinoma); assay: Bliss excess, mean over the matrix (fraction); higher = more synergy
Outline: (§1)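 Cell lines grown in DMEM/F12 or RPMI with 10% FBS were plated in 1536-well plates and held 24 hours at 37°C, 5% CO2 before 72 hours of exposure to two-drug dose matrices, with DMSO typically at 0.2%. CellTiter-Glo 2.0 luminescence gave viability, which was converted to inhibition. Vehicle wells were set to 0 and blank wells to 1. Combination Emax is the second-highest inhibition in the matrix, and Bliss excess is the observed combination effect minus the expected EA + EB − EA·EB, where EA and EB are the single-agent effects.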

[2] = tested on: HOP-92 (Non-Small Cell Lung Carcinoma); assay: combination Emax (second highest fraction inhibited in the dose matrix, 72 h); higher = more inhibition; extreme values may be limits of the assay
Outline: as §1

[3] = tested on: GDM-1 (Acute Myeloid Leukemia); assay: as above
Outline: as §1

D-392MG (Glioblastoma) = assay: as above
Outline: as §1

CS1 (Chondrosarcoma) = assay: as above
Outline: as §1

[4] = tested on: U-118-MG (Low Grade Glioma); assay: as above
Outline: as §1

[5] = tested on: FU-OV-1 (Ovarian Carcinoma); assay: as above
Outline: as §1

[6] = tested on: PA-TU-8902 (Pancreatic Carcinoma); assay: as above
Outline: as §1

[7] = tested on: SNU-61 (Colorectal Carcinoma); assay: as above
Outline: as §1

[8] = tested on: MEG-01 (Chronic Myelogenous Leukemia); assay: as above
Outline: as §1

A172 (Glioblastoma) = assay: as above
Outline: as §1

[9] = tested on: HCC1143 (Breast Carcinoma); assay: as above
Outline: as §1

[10] = tested on: JHH-6 (Hepatocellular Carcinoma); assay: as above
Outline: as §1

[11] = tested on: KG-1 (Acute Myeloid Leukemia); assay: as above
Outline: as §1
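For Bliss excess, mean over the matrix in this document: after 72 h of two-drug dosing.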

| SMILES | Bliss excess [1] | combination Emax [2] | combination Emax [3] | combination Emax (D-392MG (Glioblastoma)) | combination Emax (CS1 (Chondrosarcoma)) | combination Emax [4] | combination Emax [5] | combination Emax [6] | combination Emax [7] | combination Emax [8] | combination Emax (A172 (Glioblastoma)) | combination Emax [9] | combination Emax [10] | combination Emax [11] |
| --- | --- | --- | --- | --- | --- | --- | --- | --- | --- | --- | --- | --- | --- | --- |
| CC1(C)CCC(CN2CCN(c3ccc(C(=O)NS(=O)(=O)c4ccc(NCC5CCOCC5)c([N+](=O)[O-])c4)c(Oc4cnc5[nH]ccc5c4)c3)CC2)=C(c2ccc(Cl)cc2)C1 [Venetoclax] + COc1cc(Nc2ncc3c(n2)-c2ccc(Cl)cc2C(c2c(F)cccc2OC)=NC3)ccc1C(=O)O [Alisertib] (first compound max 1 µM, 7x7, partner max 10 µM) | -0.0614 | 0.57 | 0.98 | 0.416 | 0.598 | 0.527 | 0.665 | 0.394 | 0.263 | 0.817 | 0.595 | 0.469 | 0.301 | 1 |
| COc1cccc(OCCCN)c1-c1cc(Nc2cnc(C#N)cn2)n[nH]1 [Prexasertib] + CCc1c2c(nc3ccc(O)cc13)-c1cc3c(c(=O)n1C2)COC(=O)[C@]3(O)CC [SN-38] (first compound max 1 µM, 7x7, partner max 0.3 µM) | 0.0846 | 0.873 | 0.99 | 0.551 | 0.882 | 0.986 | 0.806 | 0.752 | 0.698 | 0.94 | 0.751 | 0.928 | 0.79 | 0.925 |
| CC1(C)CCC(CN2CCN(c3ccc(C(=O)NS(=O)(=O)c4ccc(NCC5CCOCC5)c([N+](=O)[O-])c4)c(Oc4cnc5[nH]ccc5c4)c3)CC2)=C(c2ccc(Cl)cc2)C1 [Venetoclax] + C[C@@H]1COCCN1C2=NC(=NC(=C2)C3(CC3)[S@](=N)(=O)C)C4=C5C=CNC5=NC=C4 [AZD6738] (first compound max 1 µM, 7x7, partner max 10 µM) | -0.0444 | 0.562 | 0.946 | 0.339 | 0.701 | 0.648 | 0.485 | 0.344 | 0.43 | 0.883 | 0.595 | 0.821 | 0.459 | 0.917 |
| CC1(C)CCC(CN2CCN(c3ccc(C(=O)NS(=O)(=O)c4ccc(NCC5CCOCC5)c([N+](=O)[O-])c4)c(Oc4cnc5[nH]ccc5c4)c3)CC2)=C(c2ccc(Cl)cc2)C1 [Venetoclax] + C1CN(CCC1(C(=O)N[C@@H](CCO)C2=CC=C(C=C2)Cl)N)C3=NC=NC4=C3C=CN4 [Capivasertib] (first compound max 1 µM, 7x7, partner max 3 µM) | -0.0783 | 0.402 | 0.866 | 0.239 | 0.324 | 0.4 | 0.151 | 0.162 | 0.154 | 0.731 | 0.289 | 0.239 | 0.232 | 0.516 |
| CC1(C)CCC(CN2CCN(c3ccc(C(=O)NS(=O)(=O)c4ccc(NCC5CCOCC5)c([N+](=O)[O-])c4)c(Oc4cnc5[nH]ccc5c4)c3)CC2)=C(c2ccc(Cl)cc2)C1 [Venetoclax] + Cc1cc2ncnn2cc1Nc1ncc2c(n1)n(C1CCOCC1)c(=O)n2C [AZD7648] (first compound max 1 µM, 7x7, partner max 10 µM) | -0.036 | 0.263 | 0.842 | 0.178 | 0.297 | 0.412 | 0.358 | 0.236 | 0.154 | 0.737 | 0.334 | 0.253 | 0.212 | 0.651 |
| CC1(C)CCC(CN2CCN(c3ccc(C(=O)NS(=O)(=O)c4ccc(NCC5CCOCC5)c([N+](=O)[O-])c4)c(Oc4cnc5[nH]ccc5c4)c3)CC2)=C(c2ccc(Cl)cc2)C1 [Venetoclax] + CN(C)CCCOc1ccc(-c2ccc3ncc4c(c3c2)n(C2CCOCC2)c(=O)n4C)cn1 [AZD0156] (first compound max 1 µM, 7x7, partner max 1 µM) | -0.0223 | 0.292 | 0.679 | 0.205 | 0.56 | 0.217 | 0.291 | 0.209 | 0.182 | 0.782 | 0.238 | 0.232 | 0.212 | 0.595 |
| CC1(C)CCC(CN2CCN(c3ccc(C(=O)NS(=O)(=O)c4ccc(NCC5CCOCC5)c([N+](=O)[O-])c4)c(Oc4cnc5[nH]ccc5c4)c3)CC2)=C(c2ccc(Cl)cc2)C1 [Venetoclax] + C=CCn1c(=O)c2cnc(Nc3ccc(N4CCN(C)CC4)cc3)nc2n1-c1cccc(C(C)(C)O)n1 [AZD1775] (first compound max 1 µM, partner max 1 µM) | -0.0599 | 0.48 | 1 | 0.5 | 0.682 | 0.357 | 0.612 | 0.286 | 0.373 | 0.913 | 0.315 | 0.548 | 0.296 | 0.913 |
| CC1(C)CCC(CN2CCN(c3ccc(C(=O)NS(=O)(=O)c4ccc(NCC5CCOCC5)c([N+](=O)[O-])c4)c(Oc4cnc5[nH]ccc5c4)c3)CC2)=C(c2ccc(Cl)cc2)C1 [Venetoclax] + C[C@@H](Nc1cc(F)cc(F)c1)c1cc(C(=O)N(C)C)cc2c(=O)cc(N3CCOCC3)oc12 [AZD8186] (first compound max 1 µM, 7x7, partner max 3 µM) | -0.0594 | 0.206 | 0.934 | 0.139 | 0.415 | 0.284 | 0.412 | 0.115 | 0.103 | 0.646 | 0.171 | 0.246 | 0.193 | 0.508 |
| CN(CCO)CC[C@H](CSc1ccccc1)Nc1ccc(S(=O)(=O)NC(=O)c2ccc(N3CCC([C@@H](O)c4ccccc4-c4ccc(Cl)cc4)CC3)cc2)cc1S(=O)(=O)C(F)(F)F [AZD4320] + C[C@@H](Nc1cc(F)cc(F)c1)c1cc(C(=O)N(C)C)cc2c(=O)cc(N3CCOCC3)oc12 [AZD8186] (first compound max 1 µM, 7x7, partner max 3 µM) | -0.0284 | 0.967 | 1 | 0.649 | 0.839 | 0.812 | 0.558 | 0.387 | 0.162 | 0.773 | 0.327 | 0.418 | 0.326 | 0.953 |
| CC1(C)CCC(CN2CCN(c3ccc(C(=O)NS(=O)(=O)c4ccc(NCC5CCOCC5)c([N+](=O)[O-])c4)c(Oc4cnc5[nH]ccc5c4)c3)CC2)=C(c2ccc(Cl)cc2)C1 [Venetoclax] + CCN(CCO)CCCOc1ccc2c(Nc3cc(CC(=O)Nc4cccc(F)c4)[nH]n3)ncnc2c1 [AZD2811] (first compound max 1 µM, 7x7, partner max 1 µM) | -0.0705 | 0.476 | 0.996 | 0.217 | 0.434 | 0.357 | 0.238 | 0.192 | 0.168 | 0.799 | 0.423 | 0.318 | 0.193 | 0.84 |
| CC1(C)CCC(CN2CCN(c3ccc(C(=O)NS(=O)(=O)c4ccc(NCC5CCOCC5)c([N+](=O)[O-])c4)c(Oc4cnc5[nH]ccc5c4)c3)CC2)=C(c2ccc(Cl)cc2)C1 [Venetoclax] + Cn1cnc2c(F)c(Nc3ccc(Br)cc3Cl)c(C(=O)NOCCO)cc21 [Selumetinib] (first compound max 1 µM, 7x7, partner max 3 µM) | -0.0929 | 0.148 | 0.735 | 0.161 | 0.278 | 0.181 | 0.445 | 0.26 | 0.351 | 0.868 | 0.206 | 0.275 | 0.222 | 0.726 |
| CN(CCO)CC[C@H](CSc1ccccc1)Nc1ccc(S(=O)(=O)NC(=O)c2ccc(N3CCC([C@@H](O)c4ccccc4-c4ccc(Cl)cc4)CC3)cc2)cc1S(=O)(=O)C(F)(F)F [AZD4320] + Cn1cnc2c(F)c(Nc3ccc(Br)cc3Cl)c(C(=O)NOCCO)cc21 [Selumetinib] (first compound max 1 µM, 7x7, partner max 3 µM) | 0.0354 | 0.963 | 1 | 0.483 | 0.847 | 0.842 | 0.619 | 0.7 | 0.512 | – | 0.212 | 0.361 | 0.35 | 0.971 |
| C[C@@H]1COCCN1c1cc(C2([S@](C)(=N)=O)CC2)nc(-c2ccnc3[nH]ccc23)n1 [AZD6738] + O=C(c1cc(Cc2n[nH]c(=O)c3ccccc23)ccc1F)N1CCN(C(=O)C2CC2)CC1 [Olaparib] (first compound max 10 µM, 7x7, partner max 10 µM) | – | 0.667 | 0.624 | 0.38 | 0.67 | 0.589 | – | 0.195 | 0.27 | 0.908 | 0.717 | 0.701 | 0.263 | 0.739 |
| COc1cccc2c1C(=O)c1c(O)c3c(c(O)c1C2=O)C[C@@](O)(C(=O)CO)C[C@@H]3O[C@H]1C[C@H](N)[C@H](O)[C@H](C)O1 [Doxorubicin] + Cc1cc2ncnn2cc1Nc1ncc2c(n1)n(C1CCOCC1)c(=O)n2C [AZD7648] (first compound max 1 µM, 7x7, partner max 10 µM) | – | 0.547 | 0.975 | 0.586 | 0.772 | 0.715 | – | 0.372 | 0.321 | 0.867 | 0.94 | 0.518 | 0.496 | 0.365 |
| Cc1c2c(nn1C)CSCc1cc(n(C)n1)CSc1cc(c3ccccc3c1)OCCCc1c(C(=O)O)n(C)c3c-2c(Cl)ccc13 [AZD5991] + CN(C)CCCOc1ccc(-c2ccc3ncc4c(c3c2)n(C2CCOCC2)c(=O)n4C)cn1 [AZD0156] (first compound max 1 µM, 7x7, partner max 1 µM) | – | 0.41 | 0.549 | 0.252 | 0.235 | 0.27 | – | 0.192 | 0.196 | 0.432 | 0.228 | 0.364 | 0.188 | 1 |
